Measured values from patent US20080076824A1, “Compounds That Inhibit Replication Of Human Immunodeficiency Virus” (priority 2004, published 2008).
Several values for one entry are separate records, joined by “and”; a condition that tells them apart may be missing. Identical values can stand only once. Entries after “also recorded” stand apart in the source; their conditions may differ. Like-named read-outs stand apart in the source and are kept apart here. Residues, ends and D or L forms follow the SMILES beside them.

Legend:
[1] = system: HIV (SF2 virus); experiment: HIV infectivity assay, SF2-infected H9 cells, reverse transcriptase (RT) quantification in supernatant; assay type: cell-based; conditions: for RT mean: mean of replicates; for RT: single replicate
[2] = system: Herpes simplex virus-1 (KOS); conditions: read-out: Minimum inhibitory concentration Herpes simplex virus-1 (KOS); HEL; reduces virus-induced cytopathogenicity by 50%
[3] = system: Sindbis virus; conditions: read-out: Minimum inhibitory concentration Sindbis virus; Vero; reduces virus-induced cytopathogenicity by 50%
[4] = system: HIV-2 (ROD); experiment: microbe, parasite or virus in culture; assay type: cell-based; conditions: CEM cell cultures, syncytia formation, Table 1; read-out: EC50 HIV-2 ROD
Procedure, shortened: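 CEM, C8166 or MT-4 cells (4 to 5×10^5 cells/ml) infected with HIV-2 ROD at ~100 CCID50/ml, then incubated with 5-fold compound dilutions at 37 °C for 4–5 days. Giant cell formation scored microscopically in CEM and C8166 cultures; MT-4 viability counted by trypan blue exclusion.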

[5] = system: HIV-1 (IIIB); experiment: microbe, parasite or virus in culture
Procedure, shortened: (§1)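 MT-4, C8166 or CEM cells (4 to 5×10^5 cells/ml) infected at ~100 CCID50/ml, incubated with 5-fold compound dilutions at 37 °C for 4–5 days. Read-out: microscopic giant-cell formation in CEM and C8166 cultures; viable-cell count by trypan blue in MT-4.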

[6] = system: HIV-2(ROD); experiment: microbe, parasite or virus in culture
Procedure, shortened: as §1

[7] = system: HIV (SF2 virus); experiment: HIV infectivity assay, SF2-infected H9 cells, p24 quantification; assay type: cell-based; conditions: for OD1: replicates (1)-(3)
Description: The remaining wells were filled with sterile distilled water. The cell culture plates were incubated at 37° C. and 5% CO2. After four days the medium was changed, after eight days the medium was changed and the cells were collected. After 11 days, the infection was stopped, the cells were viewed in a 10× magnification microscope and 650 μl of each cell supernatant was collected and frozen at −80° C. for further analysis. After five more days, the supernatants were thawed and used in a conventional reverse transcriptase (RT) activity assay (e.g., Roche AMPLICOR MONITOR™) or a p24 quantification assay (e.g., Abbott Laboratories, Chicago). (See U.S. Pat. No. 6,258,932 and U.S. patent application Ser. No. 10/235,158, both of which are hereby expressly incorporated by reference in its entireties).
[…] The cells in the samples were counted and then centrifuged. The cells were then resuspended in 10 ml of RPMI 1640 (containing fetal calf serum) and either […] Metabolite X or 100 μM GPG-NH2. Uninfected control and untreated control samples were also included in the experiment. The samples were then incubated overnight at 37° C. at 5% CO2.
Then, the amount of p24 in the samples was analysed using a conventional p24 detection assay (see U.S. Pat. No. 6,258,932).
Three replicate samples (“replicates”) of uninfected samples and untreated samples were also included in the experiment as controls. The inhibition of HIV replication was monitored by quantifying the levels of p24 using a conventional detection kit.
Three replicates of unninfected samples and untreated samples were also included in the experiment as controls.

[8] = system: Herpes simplex virus-2 (G); conditions: read-out: Minimum inhibitory concentration Herpes simplex virus-2 (G); HEL; reduces virus-induced cytopathogenicity by 50%
[9] = system: Punta Toro virus; conditions: read-out: Minimum inhibitory concentration Punta Toro virus; Vero; reduces virus-induced cytopathogenicity by 50%
[10] = system: HIV-1 (IIIB)
[11] = system: Vesicular stomatitis virus; conditions: read-out: Minimum inhibitory concentration Vesicular stomatitis virus; HEL; reduces virus-induced cytopathogenicity by 50%
[12] = system: Vesicular stomatitis virus; conditions: read-out: Minimum inhibitory concentration Vesicular stomatitis virus; HeLa; reduces virus-induced cytopathogenicity by 50%
[13] = system: Respiratory syncytial virus; conditions: read-out: Minimum inhibitory concentration Respiratory syncytial virus; HeLa; reduces virus-induced cytopathogenicity by 50%
[14] = read-out: EC50 (C8166) HIV-1 (IIIB), Table 19
[15] = read-out: EC50 (MT-4) HIV-1 (IIIB), Table 19
[16] = read-out: EC50 (C8166) HIV-2 (ROD), Table 19
[17] = read-out: EC50 (MT-4) HIV-2 (ROD), Table 19
[18] = read-out: 50% effective concentration, HIV replication in CEM cell cultures
[19] = read-out: EC50 (CEM) HIV-1 (IIIB), Table 19
[20] = read-out: EC50 HIV-1 IIIB, CEM cell cultures, syncytia formation, Table 1

NCC(N)=O [G-NH2, glycinamide]
OD405-620 ([1]; 0.5 μM, fetal calf serum): 0.871 and 0.896 and 0.908
OD405-620 - Blank ([1]; 0.5 μM, fetal calf serum): 0.845 and 0.87 and 0.882
RT mean ([1]; 0.5 μM, fetal calf serum): 9152 pg/mL
RT ([1]; 0.5 μM, fetal calf serum): 8927 pg/mL and 9199 pg/mL and 9329 pg/mL
OD405-620 ([1]; 1 μM, fetal calf serum): 0.563 and 0.672 and 0.712
OD405-620 - Blank ([1]; 1 μM, fetal calf serum): 0.537 and 0.646 and 0.686
RT mean ([1]; 1 μM, fetal calf serum): 6514 pg/mL
RT ([1]; 1 μM, fetal calf serum): 5579 pg/mL and 6764 pg/mL and 7199 pg/mL
OD405-620 ([1]; 2 μM, fetal calf serum): 0.868 and 0.903 and 0.528
OD405-620 - Blank ([1]; 2 μM, fetal calf serum): 0.842 and 0.877 and 0.502
RT mean ([1]; 2 μM, fetal calf serum): 7789 pg/mL
RT ([1]; 2 μM, fetal calf serum): 8895 pg/mL and 9275 pg/mL and 5199 pg/mL
OD405-620 ([1]; 4 μM, fetal calf serum): 0.781 and 0.493 and 0.539
OD405-620 - Blank ([1]; 4 μM, fetal calf serum): 0.755 and 0.467 and 0.513
RT mean ([1]; 4 μM, fetal calf serum): 6029 pg/mL
RT ([1]; 4 μM, fetal calf serum): 7949 pg/mL and 4818 pg/mL and 5318 pg/mL
OD405-620 ([1]; 8 μM, fetal calf serum): 0.274 and 0.302 and 0.332
OD405-620 - Blank ([1]; 8 μM, fetal calf serum): 0.248 and 0.276 and 0.306
RT mean ([1]; 8 μM, fetal calf serum): 2750 pg/mL
RT ([1]; 8 μM, fetal calf serum): 2438 pg/mL and 2742 pg/mL and 3068 pg/mL
OD405-620 ([1]; 16 μM, fetal calf serum): 0.563 and 0.861 and 0.902
OD405-620 - Blank ([1]; 16 μM, fetal calf serum): 0.537 and 0.835 and 0.876
RT mean ([1]; 16 μM, fetal calf serum): 158 pg/mL
RT ([1]; 16 μM, fetal calf serum): 112 pg/mL and 176 pg/mL and 185 pg/mL
OD405-620 ([1]; 32 μM, fetal calf serum): 0.141 and 0.155
OD405-620 - Blank ([1]; 32 μM, fetal calf serum): 0.115 and 0.129
RT mean ([1]; 32 μM, fetal calf serum): 21 pg/mL
RT ([1]; 32 μM, fetal calf serum): 20 pg/mL and 23 pg/mL
inhibition of HIV replication, reverse transcriptase (RT) activity ([1]; cultures containing boiled fetal calf serum): unable to inhibit replication of HIV; also recorded: did not
EC50 [2]: > 2000 µM
EC50 [3]: > 2000 µM
EC50 [4]: 35 ± 8.7 µM
EC50 [5, 14]: 150 µM
EC50 ([5]; read-out: EC50 (C8166) HIV-1 (IIIB), Table 20): 150 µM
EC50 [5, 15]: > 500 µM
EC50 ([5]; read-out: EC50 (MT-4) HIV-1(IIIB), Table 20, related set of experiments): > 500 µM
EC50 [6, 16]: 150 µM
EC50 ([6]; read-out: EC50 (C8166) HIV-2 (ROD), Table 20): 150 µM
EC50 [6, 17]: > 500 µM
EC50 ([6]; read-out: EC50 (MT-4) HIV-2 (ROD), Table 20): > 500 µM
OD1 ([7]; 50 μM, fetal calf serum): 0.182 and 0.105 and 0.319
conc p24 ([7]; 50 μM, human serum): 714.23 ng/mL and 653.27 ng/mL and 773.51 ng/mL
OD2 ([7]; 100 μM, fetal calf serum): 0.075 and 0.069 and 0.071
conc p24 ([7]; 100 μM, fetal calf serum): 0.09 ng/mL and 0.08 ng/mL
mean OD ([7]; 100 μM, fetal calf serum): 0.077 and 0.070 and 0.074
mean OD - blank ([7]; 100 μM, fetal calf serum): 0.035 and 0.028 and 0.032
OD1 ([7]; 100 μM, fetal calf serum): 0.078 and 0.071 and 0.077
conc p24 ([7]; 100 μM, human serum): 780.21 ng/mL and 785.24 ng/mL and 876.34 ng/mL
inhibition of HIV replication, accumulation of p24 ([7]; human serum): unable to inhibit HIV replication in human serum
EC50 [8]: > 2000 µM
EC50 [9]: > 2000 µM
ability to inhibit the replication of HIV ([10]; G-NH2 in medium with heat inactivated serum (10% fetal bovine serum, 95° C., 30 minutes)): lost its ability to inhibit the replication of HIV
inhibition of replication of HIV ([10]; boiled fetal bovine serum or human serum samples, results the experiments will show): does not
EC50 [10, 18]: ~30 µM
EC50 [10, 19]: 25 ± 7.1 µM
EC50 ([10]; read-out: EC50 (CEM) HIV-1(IIIB), Table 20): 25 ± 7.1 µM
EC50 [10, 20]: 32 ± 7.6 µM
EC50 ([10]; read-out: EC50 against HIV-1(IIIB), CEM cell cultures, Table 2): ~21.3 µM
EC50 ([10]; read-out: EC50 against HIV-1(IIIB), CEM cell cultures, Table 2, listed as Glycinamide): 21.3 ± 16.3 µM
EC50 [11]: > 2000 µM
EC50 [12]: > 2000 µM
EC50 [13]: > 2000 µM

NCC(=O)N1CCC[C@H]1C(=O)NCC(N)=O [GPG-NH2, glycylprolylglycinamide] (H-Gly-Pro-Gly-NH2)
reverse transcriptase activity in treated samples ([1]; 100 μM, fetal calf serum): no reverse transcriptase activity
EC50 [2]: > 400 µM
EC50 [3]: > 400 µM
EC50 [4]: 30 ± 10 µM
EC50 [5, 14]: 150 µM
EC50 [5, 15]: > 500 µM
EC50 [6, 16]: 150 µM
EC50 [6, 17]: > 500 µM
inhibition of HIV replication, p24 ([7]; 100 μM, presence of fetal calf serum): effectively inhibited HIV replication
EC50 [8]: > 400 µM
EC50 [9]: > 400 µM
EC50 [10, 18]: ~30 µM
EC50 [10, 19]: 30 µM
EC50 [10, 20]: 35 ± 8.7 µM
EC50 [11]: > 400 µM
EC50 [12]: > 400 µM
EC50 [13]: > 400 µM
